In patent US20070082068A1, “Il-8 production promoters and use thereof” (priority 2003, published 2007):

Key:
[1] = test system: IL-8 production by Caco-2 cells; assay: Effect of promoting IL-8 production by Caco-2 cells (sandwich ELISA of culture supernatants); assay type: cell-based, human; settings: compounds at final concentration 100 μg/ml; 6-hour culture, then 12 hours in additive-free media; differentiated Caco-2 cells; significant difference P<0.01
Experimental: Caco-2 cells (human colon cancer-derived cell line; American Type Culture Collection, Rockville, Md., U.S.A.) were used as small-intestinal epithelial cell models to evaluate the influence of peppermint, dokudami (houttuynia herb), and licorice extracts on IL-8 production by the cells.
(§1) The Caco-2 cells were subcultured in 24-well plates. The resulting cells were cultured at 37° C. for 14 days under 5% CO2 conditions and thereby differentiated into small-intestinal epithelioid cells. Culture media used were DMEM media (SIGMA Corp.) containing 10% fetal calf serum, 1% non essential amino acid solution, 2% glutamine, 100 U/ml penicillin, and 100 μg/ml streptomycin. A peppermint extract obtained in Example 1, a dokudami (houttuynia herb) extract obtained in Example 2, and a licorice extract obtained in Example 3 were added at each final concentration of 100 μg/ml to the media, and the cells were cultured therein. After 6-hour culture, the media were replaced with additive-free media, followed by additional culture for 12 hours. The resulting culture supernatants were subjected to sandwich ELISA assay (Eckmann, L., et al., Gastroenterology, 105, 1689-1697, 1993) to quantify the amount of IL-8 in the culture supernatants.
Caco-2 cells (human colon cancer-derived cell line; American Type Culture Collection, Rockville, Md., U.S.A.) were used as small-intestinal epithelial cell models to evaluate the influence of α-humulene, α-pinene, β-pinene and L-menthol on IL-8 production by the cells.
as §1, with “5% Co2” for “5% CO2”, “streptomycin. α-humulene (SIGMA Corp.), α-pinene (SIGMA Corp.), β-pinene (SIGMA Corp.),” for “streptomycin. A peppermint extract obtained in Example 1, a dokudami (houttuynia herb) extract obtained in Example 2,”, “and L-menthol (SIGMA Corp.)” for “and a licorice extract obtained in Example 3”, “media was” for “media were”, “assay” for “assay (Eckmann, L., et al., Gastroenterology, 105, 1689-1697, 1993)”

Caco-2 cells = assay: Evaluation of cytotoxicity by LDH (lactate dehydrogenase) assay; assay type: cell-based; settings: 100 μg/ml; 24 hours; differentiated Caco-2 cells
Experimental: The cytotoxicity of peppermint, dokudami (houttuynia herb), licorice extracts was evaluated with Caco-2 cells. The Caco-2 cells differentiated into small-intestinal epithelioid cells in the same way as in Example 4 were cultured for 24 hours in media containing the peppermint, dokudami (houttuynia herb), and licorice extracts at each final concentration of 100 μg/ml. Subsequently, the media were removed, and the resulting cells were washed twice with PBS (phosphate buffered saline) (−) (Nissui Co., Ltd.). The cells were further supplemented with 700 μl of PBS (−) and left undisturbed at 37° C. for 2 hours. […] In summary, this assay is a method for quantifying cytotoxicity based on the activity of LDH released from dead cells by colormetrically determining formazan converted from a tetrazolium salt serving as a coloring reagent. The rate of free LDH (%) was calculated according to the equation below by using the LDH concentration in the collected PBS (−) as the amount of free LDH and the LDH concentration in the cell lysate as the amount of intracellular LDH. […]
The cytotoxicity of α-humulene was evaluated with Caco-2 cells. […] The rate of free LDH (6) was calculated according to the equation below by using the LDH concentration in the collected PBS (—) as the amount of free LDH and the LDH concentration in the cell lysate as the amount of intracellular LDH. […]

| IL-8 production by the Caco-2 cells (relative IL-8 concentration to a control, FIG. 2) [1] | SMILES | Cytotoxicity (rate of free LDH vs control, FIG. 4) (Caco-2 cells) |
| --- | --- | --- |
| remarkably promoted IL-8 production | CC(C)[C@@H]1CC[C@@H](C)C[C@H]1O [L-menthol] |  |
| remarkably promoted IL-8 production | CC1=CC[C@H]2C[C@@H]1C2(C)C [α-pinene] |  |
| remarkably promoted IL-8 production | C=C1CC[C@@H]2C[C@H]1C2(C)C [β-pinene] |  |

| SMILES | IL-8 production by the Caco-2 cells (relative IL-8 concentration to a control, FIG. 2) [1] | Cytotoxicity (rate of free LDH vs control, FIG. 4) (Caco-2 cells) |
| --- | --- | --- |
| C/C1=C\CC/C(C)=C/CC(C)(C)/C=C/C1 [α-humulene] | remarkably promoted IL-8 production | no cytotoxicity |
